From patent US20190053492A1, “SUBSTITUTED PYRIDINE COMPOUNDS AS PESTICIDES” (Bayer CropScience Aktiengesellschaft, priority 2016, published 2019)
Read-outs that look alike come from different tables or passages of the source.

Tests used:
Tetranychus urticae = Tetranychus urticae spray test, OP-resistant; format: in vivo; settings: after 6 days, bean leaf discs
Experimental: Tetranychus urticae—Spray Test, OP-Resistant
Solvent: 78.0 parts by weight of acetone • • 1.5 parts by weight of dimethylformamide
Emulsifier: alkylaryl polyglycol ether
To produce a suitable active ingredient formulation, 1 part by weight of active ingredient is dissolved with the specified parts by weight of solvent and made up with water containing an emulsifier concentration of 1000 ppm until the desired concentration is attained. To produce further test concentrations, the formulation is diluted with emulsifier-containing water.
Discs of bean leaves (Phaseolus vulgaris) infested with all stages of the greenhouse red spider mite (Tetranychus urticae) are sprayed with an active ingredient formulation of the desired concentration.
After 6 days, the efficacy in % is determined. 100% means that all the spider mites have been killed; 0% means that no spider mites have been killed.

Phaedon cochleariae = Phaedon cochleariae spray test; format: in vivo; settings: after 7 days, Chinese cabbage leaf discs
How it was run: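 Larval kill read at day 7 as percent, where 100% means every larva dead and 0% none; larvae were placed on dried Brassica pekinensis leaf discs previously sprayed with the formulation (acetone/dimethylformamide solvent, alkylaryl polyglycol ether emulsifier, water).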

Spodoptera frugiperda = Spodoptera frugiperda spray test; format: in vivo; settings: after 7 days, maize leaf discs
How it was run: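 Efficacy in % was scored at 7 days against armyworm caterpillars placed on dried, compound-sprayed Zea mays leaf discs. Compound was dissolved in acetone/dimethylformamide and diluted in water with 1000 ppm alkylaryl polyglycol ether. 100% means all caterpillars were killed.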

[1] = log P by HPLC on reversed-phase column (C 18), EEC Directive 79/831 Annex V.A8; format: physicochemical; settings: 55° C.; for LOGP_HCOOH: log P (HCOOH); for chromatographic logP: reversed-phase HPLC column (C 18)
Experimental: Temperature: 55° C. […] Called log P (HCOOH) in the table. […] Called log P (neutral) in the table.

Lucilia cuprina = Lucilia cuprina test; format: in vivo; settings: application rate 100 ppm, after 2 days, L1 larvae
How it was run: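 Percent mortality read at day 2, where 100% means all larvae dead. Roughly 20 L1 larvae were exposed on minced horsemeat treated with a DMSO/water formulation at the desired concentration.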

Ctenocephalides felis [2] = assay: Ctenocephalides felis oral test; format: in vivo; settings: application rate 100 ppm in citrated cattle blood, after 2 days, adult cat fleas
How it was run: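 Kill (%) was recorded at 2 days. Compound, dissolved in DMSO and diluted into citrated cattle blood, was offered to roughly 20 unfed adult C. felis through parafilm.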

Ctenocephalides felis [3] = assay: Ctenocephalides felis in vitro contact test with adult cat fleas; format: in vivo; settings: application rate 5 μg/cm^2 (500 g/ha), after 48 h
Experimental: Ctenocephalides felis—In Vitro Contact Tests with Adult Cat Fleas
For the coating of the test tubes, 9 mg of active ingredient are first dissolved in 1 ml of acetone p.a. and then diluted to the desired concentration with acetone p.a. 250 μl of the solution are distributed homogeneously on the inner walls and the base of a 25 ml glass tube by turning and rocking on an orbital shaker (rocking rotation at 30 rpm for 2 h). With 900 ppm of active ingredient solution and internal surface area 44.7 cm^2, given homogeneous distribution, an area-based dose of 5 μg/cm^2 is achieved.
After the solvent has evaporated off, the tubes are populated with 5-10 adult cat fleas (Ctenocephalides felis), sealed with a perforated plastic lid and incubated in a horizontal position at room temperature and ambient humidity. After 48 h, efficacy is determined. To this end, the tubes are stood upright and the fleas are knocked to the base of the tube. Fleas which remain motionless at the base or move in an uncoordinated manner are considered to be dead or moribund.
100% efficacy means that all the fleas were dead or moribund. 0% efficacy means that no fleas were harmed.

Meloidogyne incognita = Meloidogyne incognita test; format: in vivo; settings: application rate 20 ppm, after 14 days, lettuce
Experimental: Meloidogyne incognita Test Solvent: 125.0 parts by weight of acetone To produce a suitable active ingredient formulation, 1 part by weight of active ingredient is mixed with the stated amount of solvent and the concentrate is diluted with water to the desired concentration. Vessels are filled with sand, active ingredient solution, an egg/larvae suspension of the southern root-knot nematode (Meloidogyne incognita) and lettuce seeds. The lettuce seeds germinate and the plants develop. The galls develop on the roots. After 14 days, the nematicidal efficacy in % is determined by the formation of galls. 100% means that no galls were found; 0% means that the number of galls on the treated plants corresponds to the untreated control.

[4] = acidic range pH 2.7, 0.1% aqueous formic acid and acetonitrile, reversed-phase column (C 18)
[5] = log P, neutral range, HPLC on reversed-phase column (C 18)
[6] = acidic range at pH 2.7, 0.1% aqueous formic acid and acetonitrile, HPLC on reversed-phase column (C 18)

SMILES | efficacy (spider mites killed) (Tetranychus urticae; application rate 500 g/ha) | efficacy (beetle larvae killed) (Phaedon cochleariae; application rate 500 g/ha) | efficacy (caterpillars killed) (Spodoptera frugiperda; application rate 100 g/ha) | efficacy (caterpillars killed) (Spodoptera frugiperda; application rate 500 g/ha) | LOGP_HCOOH [1, 4] | LOGP_NEUTRAL [1, 5] | efficacy (kill in %) (Lucilia cuprina) | efficacy (kill in %) (Ctenocephalides felis [2]) | efficacy (beetle larvae killed) (Phaedon cochleariae; application rate 100 g/ha) | efficacy (fleas dead or moribund) (Ctenocephalides felis [3]) | LOGP_HCOOH [1, 6] | LOGP_NEUTRAL ([1]; log P (neutral), HPLC reversed-phase column (C 18)) | nematicidal efficacy (formation of galls) (Meloidogyne incognita) | efficacy (spider mites killed) (Tetranychus urticae; application rate 100 g/ha) | pest or weed control at 500 g/ha (Spodoptera frugiperda; Spodoptera frugiperda, foliar, 168 h, application rate 500 g/ha, read-out: efficacy (caterpillars killed)) | chromatographic logP ([1]; pH 2.7, log P (HCOOH), acidic range pH 2.7, 0.1% aqueous formic acid and acetonitrile, reversed-phase column (C 18), read-out: LOGP_HCOOH) | chromatographic logP ([1]; pH 7.8, LC-MS neutral range, pH 7.8, ammonium hydrogencarbonate/acetonitrile, read-out: log P (neutral)) | pest or weed control at 100 ppm (Ctenocephalides felis [2]; Ctenocephalides felis, po, 48 h, read-out: efficacy (kill in %))
N#Cc1cccc(CCNC(=O)c2cc(-c3ccc(OC(F)(F)F)cc3)cc(NC(=O)C3CC3)n2)c1 [Example I-091] | 90% | 100% | 100% | 100% | 4.01 | 3.88 | 100% | 95% |  |  |  |  |  |  |  |  |  | 
CC1(NC(=O)c2cc(-c3ccc(OC(F)(F)F)cc3)cc(NC(=O)C3CC3)n2)CC1 [Example I-128] |  | 100% | 100% | 100% |  |  | 100% | 100% | 100% | 100% | 3.84 |  |  |  |  |  |  | 
O=C(NCc1ccc(N2CCCC2=O)cc1)c1cc(-c2ccc(OC(F)(F)F)cc2)cc(NC(=O)C2CC2)n1 [Example I-259] |  | 83% |  | 100% | 3.55 |  |  |  |  |  |  | 3.58 | 90% |  |  |  |  | 
N#CCNC(=O)c1cc(-c2ccc(C(F)(F)F)cc2)cc(NC(=O)C2CC2)n1 [Example I-025] |  | 100% | 100% | 100% | 3.05 | 3.01 |  | 98% |  |  |  |  | 100% |  |  |  |  | 
O=C(NCc1ccccc1)c1cc(-c2ccc(OC(F)(F)F)cc2)cc(NC(=O)C2CC2)n1 [Example I-227] | 90% | 100% |  | 100% |  |  |  |  |  |  | 4.23 |  |  | 90% |  |  |  | 
C#CCNC(=O)c1cc(-c2ccc(C(F)(F)F)cc2)cc(NC(=O)C2CC2)n1 [Example I-038] |  | 83% |  | 83% | 3.34 | 3.25 |  |  | 100% |  |  |  | 90% |  |  |  |  | 
CCNC(=O)c1cc(-c2ccc(OC(F)(F)F)cc2)cc(NC(=O)C2CC2)n1 [Example I-118] |  | 100% | 100% | 100% |  | 3.33 |  | 100% | 100% | 100% | 3.41 |  |  |  |  |  |  | 
CC(NC(=O)c1cc(-c2ccc(OC(F)(F)F)cc2)cc(NC(=O)C2CC2)n1)c1ccc(C#N)cc1 (single isomer, unassigned) [Example I-218] | 90% | 100% | 100% | 100% |  | 4.02 |  |  | 100% |  | 4.17 |  |  | 90% |  |  |  | 
O=C(NC1CC1)c1cc(-c2ccc(SC(F)(F)F)cc2)cc(NC(=O)C2CC2)n1 [Example I-105] | 100% | 100% | 83% | 100% | 3.86 | 3.71 |  | 100% | 100% |  |  |  |  |  |  |  |  | 
CN(C(=O)c1cc(-c2ccc(C(F)(F)F)cc2)cc(NC(=O)C2CC2)n1)C1CC1 [Example I-036, N-Cyclopropyl-6-[(cyclopropylcarbonyl)amino]-N-methyl-4-[4-(trifluoromethyl)phenyl]pyridine-2-carboxamide] | 90% |  |  |  |  | 3.21 |  |  |  |  |  |  |  |  | 83% | 3.3 | 3.21 | 100%
N#Cc1ccc(CNC(=O)c2cc(-c3ccc(C(F)(F)C(F)(F)F)cc3)cc(NC(=O)C3CC3)n2)cc1 [Example I-182] | 90% | 100% | 100% | 100% |  | 4.07 | 100% | 100% | 100% |  | 4.24 |  |  |  |  |  |  | 
O=C(NN=Cc1ccc(C(F)(F)F)c(F)c1)c1cc(-c2ccc(OC(F)(F)F)cc2)cc(NC(=O)C2CC2)n1 [Example I-257] |  |  |  | 100% | 4.72 |  |  |  |  |  |  |  | 90% |  |  |  |  | 
COCCNC(=O)c1cc(-c2ccc(OC(F)(F)F)cc2)cc(NC(=O)C2CC2)n1 [Example I-177] |  |  |  |  |  | 3.26 |  |  |  |  | 3.29 |  | 90% |  |  |  |  | 
O=C(NC1CC1(F)F)c1cc(-c2ccc(OC(F)(F)F)cc2)cc(NC(=O)C2CC2)n1 (stereo not drawn) [Example I-216] |  | 100% | 100% | 100% |  | 3.74 | 80% | 100% | 100% | 100% | 3.85 |  |  |  |  |  |  | 
